Test results as given in patent EP0840781B1, “METHODS AND DEVICES FOR THE REMOVAL OF PSORALENS FROM BLOOD PRODUCTS” (Cerus Corporation, priority 1995, dated 1996).
Read-outs that look alike come from different tables or passages of the source.

Test system: Salmonella typhimurium tester strains TA97a, TA98, TA100, TA102, TA1537 and TA1538
Conditions: for revertant colonies, TA1538 +S9 (Table 18 (A)): background 123; for revertant colonies, TA1538 -S9 (Table 18 (A)): background 126; for revertant colonies, TA1537 -S9 (Table 18 (A)): background 20; for revertant colonies, TA1537 +S9 (Table 18 (A)): background 25; for base-substitution mutagenicity (Ames, summary): TA100, TA102
Description: The second property that is important in testing a compound for use in methods described herein is mutagenicity. The most widely used mutagen/carcinogen screening assay is the Ames test. This assay is described by D.M. Maron and B.N. Ames in Mutation Research 113:173 ( 1983) and a specific screen is described in detail in Example 17, below. The Ames test utilizes several unique strains of Salmonella typhimurium that are histidine- dependent for growth and that lack the usual DNA repair enzymes. The frequency of normal mutations that render the bacteria independent of histidine (i.e., the frequency of spontaneous revertants) is low. The test allows one to evaluate the impact of a compound on this revenant frequency.
Because some substances are not mutagenic by themselves, but are converted to a mutagen by metabolic action, the compound to be tested is mixed with the bacteria on agar plates along with the liver extract. The liver extract serves to mimic metabolic action in an animal.
The mixtures are allowed to incubate. Growth of bacteria (if any) is checked by counting colonies.
In this example the compounds described herein are tested for their dark mutagenicity using an Ames assay. The procedures used for the Salmonella mutagenicity test as described in detail by Maron and Ames were followed exactly. Maron, D.M. and B.N. Ames, Mutation Research 113: 173 ( 1983). A brief description for each procedure is given here. The tester strains TA97a, TA98, TA 100, TA102, TA1537 and TA1538 were obtained from Dr. Ames. TA97a, TA98, TA1537 and TA1538 are frameshift tester strains. TA100 and TA102 are base-substitution tester strains. Upon receipt each strain was cultured under a variety of conditions to confirm the genotypes specific to the strains.
The first tests done with the strains were to determine the range of spontaneous reversion for each of the strains. With each mutagenicity experiment the spontaneous reversion of the tester strains to histidine independence was measured and expressed as the number of spontaneous revertants per plate. This served as the background controls.
For all experiments, the pre-incubation procedure was used. In this procedure one vial of each tester strain was thawed and 20 µL of this culture was added to 6 mL of Oxoid Nutrient Broth #2. This solution was allowed to shake for 10 hours at 37°C. In the pre-incubation procedure, 0.1 mL of this overnight culture was added to each of the required number of sterile test tubes. To half of the tubes 0.5 mL of a 10% S-9 solution containing Aroclor 1254 induced rat liver extract (Molecular Toxicology Inc., Annapolis, MD), and MgCl2, KCl, glucose-6-phosphate, NADP, and sodium phosphate buffer (Sigma, St. Louis, Missouri) were added. To the other half of the tubes 0.5 mL of 0.2M sodium phospate buffer, pH 7.4, was used in place of the S-9 mixture (the - S9 samples). Finally 0.1 mL of the test solution containing either 0, 0.1, 0.5, 1, 5, 10, 50, 100, 250, or 500 µg/mL of the test compound was added. The 0.7 mL mixture was vonexed and then pre-incubated while shaking for 20 minutes at 37°C. After shaking, 2 mL of molten top agar supplemented with histidine and biotin were added to the 0.7 mL mixture and immediately poured onto a minimal glucose agar plate (volume of base agar was 20 mL). The top agar was allowed 30 minutes to solidify and then the plates were inverted and incubated for 44 hours at 37°C. After incubation the number of revertant colonies on each plate were counted.
Maron and Ames (1983) describe the conflicting views with regard to the statistical treatment of data generated from the test.

[1] = 100 µg/plate, Table 19 (B) experiment, background 7
[2] = 100 µg/plate, Table 19 (B) experiment, background 8
[3] = two-fold or greater increase in revertants above background and dose dependent response

Cc1cc(=O)oc2c(C)c3oc(COCCN)c(C)c3cc12 [Compound 18, 5'-(4-amino-2-oxa)butyl-4,4',8-trimethylpsoralen]
revertant colonies, TA98 -S9 (10 µg/plate, Table 19 (A) experiment, background 17): 21 | revertant colonies, TA98 +S9 (10 µg/plate, Table 19 (A) experiment, background 28): 8 | revertant colonies, TA1537 +S9 (10 µg/plate, Table 19 (B) experiment, background 7): 8 | revertant colonies, TA1537 -S9 (10 µg/plate, Table 19 (B) experiment, background 8): 21 | revertant colonies, TA98 -S9 (50 µg/plate, Table 19 (A) experiment, background 17): 303 | revertant colonies, TA98 +S9 (50 µg/plate, Table 19 (A) experiment, background 28): 6 | revertant colonies, TA1537 +S9 (50 µg/plate, Table 19 (B) experiment, background 7): 6 | revertant colonies, TA1537 -S9 (50 µg/plate, Table 19 (B) experiment, background 8): 303 | revertant colonies, TA98 -S9 (100 µg/plate, Table 19 (A) experiment, background 17): 390 | revertant colonies, TA98 +S9 (100 µg/plate, Table 19 (A) experiment, background 28): 26 | revertant colonies, TA1537 +S9 [1]: 26 | revertant colonies, TA1537 -S9 [2]: 390 | revertant colonies, TA98 -S9 (200 µg/plate, Table 19 (A) experiment, background 17): 225 | revertant colonies, TA98 +S9 (200 µg/plate, Table 19 (A) experiment, background 28): 42 | revertant colonies, TA1537 +S9 (200 µg/plate, Table 19 (B) experiment, background 7): 42 | revertant colonies, TA1537 -S9 (200 µg/plate, Table 19 (B) experiment, background 8): 225 | mutagenic response (Ames, summary) [3]: only a weak response at high concentrations in the presence of S9 in strains TA 9o and TA 1537

Cc1oc2c(C)c3oc(=O)cc(C)c3cc2c1CNCCCCN [Compound 6, 4'-(6-amino-2-aza)hexyl4,5',8-trimethylpsoralen]
revertant colonies, TA1538 +S9 (5 µg/plate): 0 | revertant colonies, TA1538 -S9 (5 µg/plate): -5 | revertant colonies, TA1538 +S9 (Table 18 (A)) (5 µg/plate): 12 | revertant colonies, TA1538 -S9 (Table 18 (A)) (5 µg/plate): -32 | revertant colonies, TA1537 +S9 (10 µg/plate): -1 | revertant colonies, TA1537 -S9 (10 µg/plate): 141 | revertant colonies, TA1538 +S9 (10 µg/plate): 8 | revertant colonies, TA1538 -S9 (10 µg/plate): -2 | revertant colonies, TA1537 -S9 (Table 18 (A)) (10 µg/plate): 12 | revertant colonies, TA1537 +S9 (Table 18 (A)) (10 µg/plate): -5 | revertant colonies, TA1538 +S9 (Table 18 (A)) (10 µg/plate): -5 | revertant colonies, TA1538 -S9 (Table 18 (A)) (10 µg/plate): 3 | revertant colonies, TA1537 +S9 (50 µg/plate): 17 | revertant colonies, TA1537 -S9 (50 µg/plate): 2010 | revertant colonies, TA1537 -S9 (Table 18 (A)) (50 µg/plate): 12 | revertant colonies, TA1537 +S9 (Table 18 (A)) (50 µg/plate): 2 | revertant colonies, TA1538 +S9 (Table 18 (A)) (50 µg/plate): 24 | revertant colonies, TA1538 -S9 (Table 18 (A)) (50 µg/plate): 2 | revertant colonies, TA1537 +S9 (100 µg/plate): 35 | revertant colonies, TA1537 -S9 (100 µg/plate): 795 | revertant colonies, TA1537 -S9 (Table 18 (A)) (100 µg/plate): 22 | revertant colonies, TA1537 +S9 (Table 18 (A)) (100 µg/plate): 20 | revertant colonies, TA1538 +S9 (Table 18 (A)) (100 µg/plate): -2 | revertant colonies, TA1538 -S9 (Table 18 (A)) (100 µg/plate): -18 | revertant colonies, TA1537 +S9 (250 µg/plate): 99 | revertant colonies, TA1537 -S9 (250 µg/plate): 228 | revertant colonies, TA1537 -S9 (Table 18 (A)) (250 µg/plate): 12 | revertant colonies, TA1537 +S9 (Table 18 (A)) (250 µg/plate): 40 | revertant colonies, TA1538 +S9 (Table 18 (A)) (250 µg/plate): -38 | revertant colonies, TA1537 +S9 (500 µg/plate): 369 | revertant colonies, TA1537 -S9 (500 µg/plate): 43 | revertant colonies, TA1537 -S9 (Table 18 (A)) (500 µg/plate): 9 | revertant colonies, TA1537 +S9 (Table 18 (A)) (500 µg/plate): 52 | frameshift mutagenicity (Ames, summary) [3]: a frameshift response in TA98 in the presence of S9 at concentrations of 250µg/plate and above. It also showed a response at 50µg/plate in TA1537 in the presence of S9 | base-substitution mutagenicity (Ames, summary) [3]: no base substitution mutagenicity

Cc1oc2c(C)c3oc(=O)cc(C)c3cc2c1CN [AMT, 4'-Aminomethyl-4,5',8-trimethylpsoralen, reference compound]
revertant colonies, TA97a +S9 (0.1 µg/plate): -23 | revertant colonies, TA97a -S9 (0.1 µg/plate): 14 | revertant colonies, TA98 +S9 (0.1 µg/plate): 1 | revertant colonies, TA98 -S9 (0.1 µg/plate): 3 | revertant colonies, TA100 +S9 (0.1 µg/plate): -16 | revertant colonies, TA100 -S9 (0.1 µg/plate): -10 | revertant colonies, TA102 +S9 (0.1 µg/plate): -20 | revertant colonies, TA102 -S9 (0.1 µg/plate): 27 | revertant colonies, TA1537 +S9 (0.1 µg/plate): 2 | revertant colonies, TA1537 -S9 (0.1 µg/plate): 0 | revertant colonies, TA1538 +S9 (0.1 µg/plate): 3 | revertant colonies, TA1538 -S9 (0.1 µg/plate): 3 | revertant colonies, TA97a +S9 (0.5 µg/plate): 32 | revertant colonies, TA97a -S9 (0.5 µg/plate): 9 | revertant colonies, TA98 +S9 (0.5 µg/plate): 3 | revertant colonies, TA98 -S9 (0.5 µg/plate): 5 | revertant colonies, TA100 +S9 (0.5 µg/plate): -12 | revertant colonies, TA100 -S9 (0.5 µg/plate): 13 | revertant colonies, TA102 +S9 (0.5 µg/plate): 5 | revertant colonies, TA102 -S9 (0.5 µg/plate): 47 | revertant colonies, TA1537 +S9 (0.5 µg/plate): 2 | revertant colonies, TA1537 -S9 (0.5 µg/plate): 3 | revertant colonies, TA1538 +S9 (0.5 µg/plate): 13 | revertant colonies, TA1538 -S9 (0.5 µg/plate): 4 | revertant colonies, TA97a +S9 (1 µg/plate): 32 | revertant colonies, TA97a -S9 (1 µg/plate): 54 | revertant colonies, TA98 +S9 (1 µg/plate): 21 | revertant colonies, TA98 -S9 (1 µg/plate): 5 | revertant colonies, TA100 +S9 (1 µg/plate): -19 | revertant colonies, TA100 -S9 (1 µg/plate): 17 | revertant colonies, TA102 +S9 (1 µg/plate): -17 | revertant colonies, TA102 -S9 (1 µg/plate): 88 | revertant colonies, TA1537 +S9 (1 µg/plate): 3 | revertant colonies, TA1537 -S9 (1 µg/plate): 5 | revertant colonies, TA1538 +S9 (1 µg/plate): 37 | revertant colonies, TA1538 -S9 (1 µg/plate): 4 | revertant colonies, TA97a +S9 (5 µg/plate): 149 | revertant colonies, TA97a -S9 (5 µg/plate): 73 | revertant colonies, TA98 +S9 (5 µg/plate): 232 | revertant colonies, TA98 -S9 (5 µg/plate): 16 | revertant colonies, TA100 +S9 (5 µg/plate): -6 | revertant colonies, TA100 -S9 (5 µg/plate): 59 | revertant colonies, TA102 +S9 (5 µg/plate): 51 | revertant colonies, TA102 -S9 (5 µg/plate): 266 | revertant colonies, TA1537 +S9 (5 µg/plate): 22 | revertant colonies, TA1537 -S9 (5 µg/plate): 44 | revertant colonies, TA1538 +S9 (5 µg/plate): 177 | revertant colonies, TA1538 -S9 (5 µg/plate): 13 | revertant colonies, TA98 +S9 (10 µg/plate): 403 | revertant colonies, TA98 -S9 (10 µg/plate): 20 | revertant colonies, TA100 +S9 (10 µg/plate): 17 | revertant colonies, TA100 -S9 (10 µg/plate): 105 | revertant colonies, TA1537 +S9 (10 µg/plate): 30 | revertant colonies, TA1537 -S9 (10 µg/plate): 52 | revertant colonies, TA1538 +S9 (10 µg/plate): 255 | revertant colonies, TA1538 -S9 (10 µg/plate): 14 | revertant colonies, TA98 +S9 (50 µg/plate): 620 | revertant colonies, TA98 -S9 (50 µg/plate): 69 | revertant colonies, TA100 +S9 (50 µg/plate): 52 | revertant colonies, TA100 -S9 (50 µg/plate): 73 | revertant colonies, TA1537 +S9 (50 µg/plate): 94 | revertant colonies, TA1537 -S9 (50 µg/plate): 2688 | revertant colonies, TA98 +S9 (100 µg/plate): 745 | revertant colonies, TA98 -S9 (100 µg/plate): 114 | revertant colonies, TA100 +S9 (100 µg/plate): 85 | revertant colonies, TA100 -S9 (100 µg/plate): 75 | revertant colonies, TA1537 +S9 (100 µg/plate): 686 | revertant colonies, TA1537 -S9 (100 µg/plate): 2058 | revertant colonies, TA1537 +S9 [1]: 500 | revertant colonies, TA1537 -S9 [2]: 608 | revertant colonies, TA98 +S9 (250 µg/plate): 933 | revertant colonies, TA98 -S9 (250 µg/plate): 112 | revertant colonies, TA100 +S9 (250 µg/plate): 89 | revertant colonies, TA100 -S9 (250 µg/plate): 24 | revertant colonies, TA1537 +S9 (250 µg/plate): 3738 | revertant colonies, TA1537 -S9 (250 µg/plate): 434 | frameshift mutagenicity (Ames, summary) [3]: frameshift mutagenicity at between 5 and 10 µg/plate in TA97a and TA98, at 5µg/plate in TA1537 and at 1 µg/plate in TA1538 | base-substitution mutagenicity (Ames, summary) [3]: no significant base-substitution mutations
